Values of other authors, collected in patent US20070293529A1, “Tetrasubstituted ureas as modulators of 11-beta hydroxyl steroid dehydrogenase type 1” (priority 2006, published 2007).

How the values were obtained:
11βHSD1 = target: T1, 11βHSD1 (Homo sapiens, UniProt P28845); conditions: two randomized, double-blind, placebo-controlled crossover studies
T1 construct: host or cells: endogenous enzyme of the treated subjects (brain)

11βHSD1 in the eye = target: T2, 11βHSD1 in the eye (Homo sapiens, UniProt P28845); conditions: healthy volunteers, after seven days of carbenoxolone treatment
T2 construct: host or cells: endogenous enzyme in the eye (NPE cells) of the treated volunteers
T2 sequence (P28845 whole entry): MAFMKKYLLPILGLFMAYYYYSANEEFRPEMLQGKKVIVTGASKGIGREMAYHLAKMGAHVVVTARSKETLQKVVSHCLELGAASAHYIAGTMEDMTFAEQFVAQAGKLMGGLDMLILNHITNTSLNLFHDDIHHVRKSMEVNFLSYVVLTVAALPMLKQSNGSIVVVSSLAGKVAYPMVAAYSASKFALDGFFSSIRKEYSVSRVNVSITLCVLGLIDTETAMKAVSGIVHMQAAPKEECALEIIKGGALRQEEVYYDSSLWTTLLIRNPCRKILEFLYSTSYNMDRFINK

[1] = test system: primary hippocampal cells
[2] = test system: pancreatic islet cells of ob/ob mice

T1 sequence (P28845 whole entry): as above

For `CC1(C)[C@@H](OC(=O)CCC(=O)O)CC[C@]2(C)[C@H]3C(=O)C=C4[C@@H]5C[C@@](C)(C(=O)O)CC[C@]5(C)CC[C@@]4(C)[C@]3(C)CC[C@@H]12` [carbenoxolone], the “verbal fluency and verbal memory” value (11βHSD1) is given as “improved verbal fluency and verbal memory”, the “reduction of intra-ocular pressure (IOP)” value (11βHSD1 in the eye) is given as 18% and the “protection from glucocorticoid-mediated exacerbation of excitatory amino acid neurotoxicity” value [1] is given as “protects the cells from glucocorticoid-mediated exacerbation of excitatory amino acid neurotoxicity”. For the same molecule, the glucose-stimulated insulin release [2] was “improves glucose-stimulated insulin release” and the “negative effects of glucocorticoids on bone nodule formation” value (bone nodule formation) was “attenuate the negative effects of glucocorticoids on bone nodule formation”.
